Test results reported in patent US9814747B2, “Methods for inhibiting HIV-1 activity by inhibitory mechanisms of extracts of Guaiacum officinale L. (Zygophyllaceae)” (priority 2014, dated 2017).

What was measured:
[1] = test system: HIV-1 BaL; test: anti-HIV bioassay: HIV-1 p24 production in infected PHA-activated PBMCs (ELISA, day 7); type: cell-based; conditions: PBMCs infected with HIV-1 BaL; result in words
Procedure: Stocks of crude drug made from G. officinale L. were prepared in Dimethyl sulfoxide (DMSO) in a stock solution of 10 mg/ml. Dilutions from the stock were made and the final concentration of DMSO in the cultures was always <0.1% to avoid cell toxicity. Peripheral blood mononuclear cells (PBMCs) were separated from buffy coats of HIV-1 seronegative donors (New York Blood Center, NY) by density centrifugation over Ficoll-Hypaque (Sigma). Briefly, the buffy coat suspension was diluted 1:2 with phosphate-buffered saline solution (PBS). Then, 35 ml were layered onto 15 ml of Ficoll® Paque PLUS (GE Healthcare), a ready to use sterile medium for isolation of lymphocytes and were centrifuged by standard ficoll-paque gradient centrifugation according to manufacturer's protocol (GE Healthcare) for 25 min at 400×g. The white interphase containing the PBMCs was collected and washed three times with PBS. […] On day 7, HIV-1 p24 protein production in the culture supernatant was measured using a commercial ELISA kit (Coulter, Hialeah, Fla.) and cell viability using a colorimetric MTT kit (Roche). […] The quantity of formazan produced (absorbance at 490 nm) is directly proportional to the number of living cells. […] MTT conversion to formazan by mitochondrial dehydrogenase was assayed by optical density at 490 nm measured in an ELISA plate reader. […]

[2] = test system: 3 cancer cell lines; test: cell proliferation assay against cancer cell lines; type: cell-based; conditions: result in words
[3] = test system: Pseudomonas pseudomaliae; conditions: result in words; cited from earlier work
[4] = test system: brine shrimp; conditions: result in words; cited from earlier work

Compound	Anti-HIV-1 activity [1]	activity against 3 cancer cell lines [2]	antibacterial activity against Pseudomonas pseudomaliae [3]	brine shrimp toxicity [4]
CC1(C)CC[C@]2(C(=O)O)CC[C@]3(C)C(=CC[C@@H]4[C@@]5(C)CC[C@H](O[C@@H]6OC[C@@H](O)[C@H](OC7O[C@H](CO)[C@H](O)[C@H](O)[C@H]7O)[C@H]6O)C(C)(C)[C@@H]5CC[C@]43C)[C@@H]2C1 (stereo partly shown) [HL-038]	moderate activity	moderate activity		
guaianin N			antibacterial activity	toxicity
